Experimental data: US10059717B2, “Urea compounds containing 3,4-dihydropyrimido[4,5-D]pyrimidin-2(1H)-one skeleton as protein kinase inhibitors” (KOREA INSTITUTE OF SCIENCE AND TECHNOLOGY, priority 2016, dated 2018)

Assays:
Assay in all cases: Kinase panel biochemical assay
Conditions in all cases: 1 μM single concentration, read-out: % residual enzyme activity
ACK1 = ACK1 (Homo sapiens, UniProt Q07912)
Experimental: (§1) In order to measure the protein kinase inhibitory activity (% inhibition) of the compounds of the present invention, biochemical assays were performed on the full kinase panel listed in the following Table 1.
(§2) As an test compound, 1-(3-(7-((6-(4-ethylpiperazine-1-carbonyl)pyridin-3-yl)amino)-1-methyl-2-oxo-1,4-dihydropyrimido[4,5-d]pyrimidin-3(2H)-yl)-4-methylphenyl)-3-(2-methoxyphenyl)urea (Compound No. 14) was used. The kinase inhibitory efficacy was measured upon treatment with a 1 μM single concentration of the test compound to calculate % residual enzyme activity value.
(§3) ABL1, FGFR2, TAOK2/TAO1, EPHA5, EPHB2, EPHB3, RET, LYN B, EPHA2, FRK/PTK5, EPHA8, LCK, EPHB4, FYN, KHS/MAP4K5, DDR1, EPHA3, P38a/MAPK14, EPHA4, FMS, EPHB1, HCK, FGFR1, ABL2/ARG, EPHA6, c-Src, ACK1, FLT4NEGFR3, ERBB4/HER4, DDR2, KDRNEGFR2, LYN, ZAK/MLTK, YES/YES1, BLK, FGR, MLCK2/MYLK2, TAOK1, BMX/ETK, BTK, EPHA1, JAK1, P38b/MAPK11, TIE2/TEK, FLT1NEGFR1, TXK, SRMS, RAF1, SIK1, MLK3/MAP3K11, PEAK1, TRKA, EPHA7, GLK/MAP4K3, MLK2/MAP3K10, TEC, CSK, TRKC, FES/FPS, SIK2, FGFR3, BRK, YSK4/MAP3K19, ARAF, PDGFRb, TNK1, GCK/MAP4K2, PDGFRa, TNIK, TAK1, ERBB2/HER2, LIMK1, HIPK4, FER, EGFR, JAK2, HPK1/MAP4K1, TRKB, RIPK3, LOK/STK10, LIMK2, MLK1/MAP3K9, BRAF, MEKK3, MEK5, STK32B/YANK2, FGFR4, MEKK2, SLK/STK2, FLT3, PKAcg, TAOK3/JIK, TYRO3/SKY, SIK3, IR, LRRK2, PYK2, NEK11, p70S6K/RPS6KB1, LATS2.

BTK = BTK (Homo sapiens, UniProt Q06187)
Experimental: as §1, §2, §3

CSK = CSK (Homo sapiens, UniProt P41240)
Experimental: as §1, §2, §3

DDR1 = DDR1 (Homo sapiens, UniProt Q08345)
Experimental: as §1, §2, §3

DDR2 = DDR2 (Homo sapiens, UniProt Q16832)
Experimental: as §1, §2, §3

EPHA4 = EPHA4 (Homo sapiens, UniProt P54764)
Sequence of EPHA4 (P54764 20-986): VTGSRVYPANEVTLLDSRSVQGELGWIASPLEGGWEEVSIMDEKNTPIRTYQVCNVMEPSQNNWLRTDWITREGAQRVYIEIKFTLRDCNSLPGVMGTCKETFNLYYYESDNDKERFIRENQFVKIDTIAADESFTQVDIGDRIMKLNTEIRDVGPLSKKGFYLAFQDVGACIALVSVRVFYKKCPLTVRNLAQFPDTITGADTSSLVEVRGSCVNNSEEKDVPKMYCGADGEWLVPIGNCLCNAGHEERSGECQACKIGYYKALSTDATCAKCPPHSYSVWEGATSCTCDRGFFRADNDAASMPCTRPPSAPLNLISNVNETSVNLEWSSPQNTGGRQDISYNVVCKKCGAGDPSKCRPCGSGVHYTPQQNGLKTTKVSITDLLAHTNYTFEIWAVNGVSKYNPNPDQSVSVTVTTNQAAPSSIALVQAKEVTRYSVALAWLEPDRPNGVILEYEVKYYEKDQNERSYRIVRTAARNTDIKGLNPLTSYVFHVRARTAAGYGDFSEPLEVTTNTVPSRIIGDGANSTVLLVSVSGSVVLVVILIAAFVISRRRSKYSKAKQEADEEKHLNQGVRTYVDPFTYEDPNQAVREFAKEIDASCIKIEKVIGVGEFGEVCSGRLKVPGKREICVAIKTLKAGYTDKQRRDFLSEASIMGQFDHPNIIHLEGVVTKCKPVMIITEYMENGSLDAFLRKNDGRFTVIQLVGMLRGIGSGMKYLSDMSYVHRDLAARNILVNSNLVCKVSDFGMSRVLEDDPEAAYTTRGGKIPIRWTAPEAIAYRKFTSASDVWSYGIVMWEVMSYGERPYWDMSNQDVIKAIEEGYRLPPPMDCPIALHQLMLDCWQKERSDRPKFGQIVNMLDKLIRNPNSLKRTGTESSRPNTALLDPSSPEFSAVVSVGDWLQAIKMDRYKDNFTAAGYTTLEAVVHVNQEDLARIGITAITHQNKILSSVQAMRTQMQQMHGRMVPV
Experimental: as §1, §2, §3

EPHA5 = EPHA5 (Homo sapiens, UniProt P54756)
Experimental: as §1, §2, §3

FGR = FGR (Homo sapiens, UniProt P09769)
Experimental: as §1, §2, §3

FRK/PTK5 = FRK/PTK5 (Homo sapiens, UniProt P42685)
Experimental: as §1, §2, §3

FYN = FYN (Homo sapiens, UniProt P06241)
Sequence of FYN (P06241 whole entry): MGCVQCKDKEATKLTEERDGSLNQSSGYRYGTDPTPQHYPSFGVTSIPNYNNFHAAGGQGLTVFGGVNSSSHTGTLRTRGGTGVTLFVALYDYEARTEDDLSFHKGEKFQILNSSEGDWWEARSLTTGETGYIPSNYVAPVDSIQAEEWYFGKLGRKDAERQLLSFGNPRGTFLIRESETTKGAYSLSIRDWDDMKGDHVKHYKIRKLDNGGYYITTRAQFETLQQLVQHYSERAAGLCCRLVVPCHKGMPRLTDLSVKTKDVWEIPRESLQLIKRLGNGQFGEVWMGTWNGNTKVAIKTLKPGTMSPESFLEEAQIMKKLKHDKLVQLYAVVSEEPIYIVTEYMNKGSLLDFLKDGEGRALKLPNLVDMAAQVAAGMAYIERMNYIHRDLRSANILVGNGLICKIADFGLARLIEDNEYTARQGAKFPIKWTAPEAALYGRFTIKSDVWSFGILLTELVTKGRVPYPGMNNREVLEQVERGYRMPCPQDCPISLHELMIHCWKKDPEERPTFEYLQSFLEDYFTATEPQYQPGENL
Experimental: as §1, §2, §3

GCK/MAP4K2 = GCK/MAP4K2 (Homo sapiens, UniProt Q12851)
Experimental: as §1, §2, §3

LATS2 = LATS2 (Homo sapiens, UniProt Q9NRM7)
Experimental: as §1, §2, §3

LCK = LCK (Homo sapiens, UniProt P06239)
Sequence of LCK (P06239 whole entry): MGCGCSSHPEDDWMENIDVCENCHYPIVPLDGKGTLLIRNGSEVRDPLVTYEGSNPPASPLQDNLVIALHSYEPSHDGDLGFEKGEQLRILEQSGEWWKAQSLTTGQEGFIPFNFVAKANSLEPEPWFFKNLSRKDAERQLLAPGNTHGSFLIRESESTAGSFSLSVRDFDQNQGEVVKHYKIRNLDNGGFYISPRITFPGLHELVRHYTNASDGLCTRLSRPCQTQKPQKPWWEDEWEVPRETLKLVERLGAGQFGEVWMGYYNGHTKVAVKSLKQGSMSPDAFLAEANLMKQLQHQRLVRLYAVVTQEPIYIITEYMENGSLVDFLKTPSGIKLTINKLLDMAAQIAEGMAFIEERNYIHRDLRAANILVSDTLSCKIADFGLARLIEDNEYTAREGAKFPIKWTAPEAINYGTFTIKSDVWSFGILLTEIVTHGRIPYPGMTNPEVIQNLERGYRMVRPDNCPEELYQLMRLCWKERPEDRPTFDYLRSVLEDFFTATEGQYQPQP
Experimental: as §1, §2, §3

LIMK2 = LIMK2 (Homo sapiens, UniProt P53671)
Experimental: as §1, §2, §3

LOK/STK10 = LOK/STK10 (Homo sapiens, UniProt O94804)
Experimental: as §1, §2, §3

LYN B = LYN B (Homo sapiens, UniProt P07948)
Experimental: as §1, §2, §3

MEK5 = MEK5 (Homo sapiens, UniProt Q13163)
Sequence of MEK5 (Q13163 whole entry): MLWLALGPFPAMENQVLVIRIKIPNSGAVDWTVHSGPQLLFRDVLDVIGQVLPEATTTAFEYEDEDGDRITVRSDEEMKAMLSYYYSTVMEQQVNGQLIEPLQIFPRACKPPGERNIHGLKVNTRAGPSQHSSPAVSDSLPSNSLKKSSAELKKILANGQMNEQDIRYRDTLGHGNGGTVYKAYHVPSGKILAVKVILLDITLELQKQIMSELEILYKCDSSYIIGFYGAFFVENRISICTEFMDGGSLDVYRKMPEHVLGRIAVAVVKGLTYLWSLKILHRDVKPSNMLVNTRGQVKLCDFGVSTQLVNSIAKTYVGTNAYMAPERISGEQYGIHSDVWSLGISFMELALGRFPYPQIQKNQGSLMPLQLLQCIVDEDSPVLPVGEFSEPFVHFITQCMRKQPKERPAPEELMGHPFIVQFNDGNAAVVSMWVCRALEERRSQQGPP
Experimental: as §1, §2, §3

MEKK2 = MEKK2 (Homo sapiens, UniProt Q9Y2U5)
Experimental: as §1, §2, §3

MLK1/MAP3K9 = MLK1/MAP3K9 (Homo sapiens, UniProt P80192)
Experimental: as §1, §2, §3

P38a/MAPK14 = P38a/MAPK14 (Homo sapiens, UniProt Q16539)
Sequence of P38a/MAPK14 (Q16539 whole entry): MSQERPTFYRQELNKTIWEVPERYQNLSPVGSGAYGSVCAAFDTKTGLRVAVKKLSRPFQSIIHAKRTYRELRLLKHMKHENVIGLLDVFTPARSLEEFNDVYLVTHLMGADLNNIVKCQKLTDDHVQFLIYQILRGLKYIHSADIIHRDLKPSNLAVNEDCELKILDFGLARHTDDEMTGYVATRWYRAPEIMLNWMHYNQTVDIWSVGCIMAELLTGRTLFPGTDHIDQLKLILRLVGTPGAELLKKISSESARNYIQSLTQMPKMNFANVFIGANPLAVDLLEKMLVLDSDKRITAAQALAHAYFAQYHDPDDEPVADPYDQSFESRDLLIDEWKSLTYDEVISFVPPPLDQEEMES
Experimental: as §1, §2, §3

PKAcg = PKAcg (Homo sapiens, UniProt P22612)
Sequence of PKAcg (P22612 whole entry): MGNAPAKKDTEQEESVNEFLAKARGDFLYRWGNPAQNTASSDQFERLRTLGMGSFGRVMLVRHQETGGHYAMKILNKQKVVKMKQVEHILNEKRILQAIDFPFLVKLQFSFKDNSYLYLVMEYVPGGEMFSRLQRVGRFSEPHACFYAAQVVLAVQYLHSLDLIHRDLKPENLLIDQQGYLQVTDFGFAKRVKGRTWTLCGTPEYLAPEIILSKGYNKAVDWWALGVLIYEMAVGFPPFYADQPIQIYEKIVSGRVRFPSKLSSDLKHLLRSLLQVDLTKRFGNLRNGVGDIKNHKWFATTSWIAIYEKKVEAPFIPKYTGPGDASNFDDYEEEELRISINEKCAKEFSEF
Experimental: as §1, §2, §3

PYK2 = PYK2 (Homo sapiens, UniProt Q14289)
Experimental: as §1, §2, §3

RIPK3 = RIPK3 (Homo sapiens, UniProt Q9Y572)
Experimental: as §1, §2, §3

SIK2 = SIK2 (Homo sapiens, UniProt Q9H0K1)
Sequence of SIK2 (Q9H0K1 whole entry): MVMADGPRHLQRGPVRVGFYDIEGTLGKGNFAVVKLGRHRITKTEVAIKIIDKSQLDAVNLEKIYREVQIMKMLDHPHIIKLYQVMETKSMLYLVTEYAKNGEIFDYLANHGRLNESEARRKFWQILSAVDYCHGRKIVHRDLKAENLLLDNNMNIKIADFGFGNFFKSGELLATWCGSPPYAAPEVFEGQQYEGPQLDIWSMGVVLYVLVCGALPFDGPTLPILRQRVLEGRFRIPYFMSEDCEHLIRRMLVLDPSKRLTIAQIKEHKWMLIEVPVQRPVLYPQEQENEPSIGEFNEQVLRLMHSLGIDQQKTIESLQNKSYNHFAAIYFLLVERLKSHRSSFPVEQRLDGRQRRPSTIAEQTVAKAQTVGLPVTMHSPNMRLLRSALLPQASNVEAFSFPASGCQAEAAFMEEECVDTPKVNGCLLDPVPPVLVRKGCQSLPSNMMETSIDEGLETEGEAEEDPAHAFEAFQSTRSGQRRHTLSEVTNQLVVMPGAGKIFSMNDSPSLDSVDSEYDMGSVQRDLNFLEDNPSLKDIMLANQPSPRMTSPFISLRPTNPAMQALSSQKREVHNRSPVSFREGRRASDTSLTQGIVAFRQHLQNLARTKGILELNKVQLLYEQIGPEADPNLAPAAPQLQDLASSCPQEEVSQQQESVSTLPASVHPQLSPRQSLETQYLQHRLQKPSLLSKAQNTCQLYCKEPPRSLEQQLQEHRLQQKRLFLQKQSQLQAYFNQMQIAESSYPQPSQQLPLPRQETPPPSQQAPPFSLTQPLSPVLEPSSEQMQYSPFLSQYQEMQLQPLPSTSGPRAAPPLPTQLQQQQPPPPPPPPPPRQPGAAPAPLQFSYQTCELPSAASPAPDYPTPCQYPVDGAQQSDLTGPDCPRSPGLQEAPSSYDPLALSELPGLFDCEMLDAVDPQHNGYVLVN
Experimental: as §1, §2, §3

SIK3 = SIK3 (Homo sapiens, UniProt Q9Y2K2)
Experimental: as §1, §2, §3

TIE2/TEK = TIE2/TEK (Homo sapiens, UniProt Q02763)
Experimental: as §1, §2, §3

TNIK = TNIK (Homo sapiens, UniProt Q9UKE5)
Experimental: as §1, §2, §3

TRKB = TRKB (Homo sapiens, UniProt Q16620)
Experimental: as §1, §2, §3

TRKC = TRKC (Homo sapiens, UniProt Q16288)
Experimental: as §1, §2, §3

TXK = TXK (Homo sapiens, UniProt P42681)
Sequence of TXK (P42681 whole entry): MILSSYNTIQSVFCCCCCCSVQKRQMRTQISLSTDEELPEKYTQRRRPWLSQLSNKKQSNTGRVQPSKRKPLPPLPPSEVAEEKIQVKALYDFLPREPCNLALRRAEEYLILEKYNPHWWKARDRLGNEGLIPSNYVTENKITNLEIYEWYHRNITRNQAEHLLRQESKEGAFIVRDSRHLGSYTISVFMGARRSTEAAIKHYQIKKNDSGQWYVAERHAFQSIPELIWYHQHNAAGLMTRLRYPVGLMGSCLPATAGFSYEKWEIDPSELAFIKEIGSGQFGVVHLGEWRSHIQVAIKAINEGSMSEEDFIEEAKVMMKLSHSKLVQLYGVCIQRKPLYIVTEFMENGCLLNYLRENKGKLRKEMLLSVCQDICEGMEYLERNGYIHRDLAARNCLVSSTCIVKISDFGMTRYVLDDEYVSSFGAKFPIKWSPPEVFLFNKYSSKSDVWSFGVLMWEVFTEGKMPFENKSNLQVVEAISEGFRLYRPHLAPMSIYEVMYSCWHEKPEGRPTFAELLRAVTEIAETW
Experimental: as §1, §2, §3

YES/YES1 = YES/YES1 (Homo sapiens, UniProt P07947)
Experimental: as §1, §2, §3

Measured: remaining activity at 1 µM

CCN1CCN(C(=O)c2ccc(Nc3ncc4c(n3)N(C)C(=O)N(c3cc(NC(=O)Nc5ccccc5OC)ccc3C)C4)cn2)CC1 [Compound No. 14, 1-(3-(7-((6-(4-ethylpiperazin-1-carbonyl)pyridin-3-yl)amino)-1-methyl-2-oxo-1,4-dihydropyrimido[4,5-d]pyrimidin-3(2H)-yl)-4-methylphenyl)-3-(2-methoxyphenyl)urea]
≤ 30%: all assays above
